# Laboratory results published in PubChem BioAssay AID458.
# Target: NAD-dependent protein deacylase sirtuin-5, mitochondrial (Homo sapiens) (UniProt Q9NXA8)
# Assay: ligand binding to SIRT5 via aggregation temperature – biophysical, StarGazer light scattering (AID 458)
# Settings: SIRT5 thermal stabilisation, at 1 mM, protein 12 µM, stronger effect = higher value
# Sequence of NAD-dependent protein deacylase sirtuin-5, mitochondrial (Homo sapiens) (Q9NXA8 whole entry, looked up): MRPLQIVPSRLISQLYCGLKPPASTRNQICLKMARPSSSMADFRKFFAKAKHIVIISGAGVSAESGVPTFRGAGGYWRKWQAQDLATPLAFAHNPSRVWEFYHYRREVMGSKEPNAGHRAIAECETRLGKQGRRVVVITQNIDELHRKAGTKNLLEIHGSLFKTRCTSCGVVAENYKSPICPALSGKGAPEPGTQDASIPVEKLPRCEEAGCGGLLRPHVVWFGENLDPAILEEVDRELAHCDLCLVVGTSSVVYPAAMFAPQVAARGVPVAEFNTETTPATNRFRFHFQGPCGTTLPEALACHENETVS
row,Compound,Tagg shift
1,CC(/C=C/C(=O)NO)=C\[C@@H](C)C(=O)c1ccc(N(C)C)cc1,5.1 °C
2,Cc1ccc(C(=O)Nc2ccc(S(=O)(=O)O)c3cc(S(=O)(=O)O)cc(S(=O)(=O)O)c23)cc1NC(=O)c1cccc(NC(=O)Nc2cccc(C(=O)Nc3cc(C(=O)Nc4ccc(S(=O)(=O)O)c5cc(S(=O)(=O)O)cc(S(=O)(=O)O)c45)ccc3C)c2)c1,27 °C
